# Patent publication US8063065B2, “Azaindazole compounds as CCR1 receptor antagonists” (Boehringer Ingelheim International GmbH, priority 2008, dated 2011)
# Biological target: T1, CCR1 (Homo sapiens, UniProt P32246)
# T1 sequence (P32246 1-355): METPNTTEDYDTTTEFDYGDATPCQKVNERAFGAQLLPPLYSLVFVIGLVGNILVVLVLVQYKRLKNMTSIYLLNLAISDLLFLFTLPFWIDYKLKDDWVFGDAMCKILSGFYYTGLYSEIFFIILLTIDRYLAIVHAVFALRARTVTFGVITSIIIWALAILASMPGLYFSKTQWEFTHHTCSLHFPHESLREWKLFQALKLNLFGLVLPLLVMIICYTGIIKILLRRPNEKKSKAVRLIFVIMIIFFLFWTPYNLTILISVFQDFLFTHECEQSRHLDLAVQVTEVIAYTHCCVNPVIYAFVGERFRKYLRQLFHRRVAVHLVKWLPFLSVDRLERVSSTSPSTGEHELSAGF
# Test: Method A: calcium flux in CCR1 transfected cells (Fluo-4 NW, FLIPR TETRA), block of the CCR1/MIP-1α interaction
# Format: cell-based
# Conditions: Method A: Fluo-4 NW, MIP-1 alpha at EC80
# Description: Compounds are assessed for the ability to block the interaction of CCR1 and MIP-1α in a functional cellular assay measuring calcium flux in CCR1 transfected cells.
# Method A: Non-adherent cells purchased from Chemicon Corporation (HTS005C), stably expressing recombinant CCR1 and G-alpha-16 are grown in RPMI 1640 medium (Mediatech 10-080-CM) supplemented with 10% heat-inactivated FBS, 0.4 mg/mL Geneticin and penicillin/streptomycin. On the day of the assay, the cells are transferred to a beaker and dye-loaded in bulk using a Fluo-4 NW Calcium Assay Kit with probenecid (Invitrogen F36205) at 0.8E6 cells/mL for 1 hour at room temperature. After 1 hour, they are seeded in a 384-well tissue culture-treated plate at a density of 20,000 cells/well. Appropriately diluted test compound is added to the well to achieve a top concentration of 3,000 nM (diluted 4-fold with 10 doses total). The final concentration of DMSO is 1%. The buffer is HBSS (Invitrogen 14025) with 20 mM HEPES at pH 7.4. The cells are allowed to incubate 1 hour in the dark at room temperature. The plates are transferred to the FLIPR TETRA where MIP-1 alpha in 1% BSA is added at the EC80 final concentration. Wells+/−MIP-1 alpha containing diluted DMSO instead of compound serve as the controls. Intracellular calcium flux is recorded on the FLIPR TETRA, using excitation at 470/495 nm and emission at 515/575 nm. Data are analyzed using Activity Base software.
row,Compound,IC50
1,"O=C(NCc1cncc(Br)c1)c1cncc2c1cnn2-c1ccc(F)cc1 [1-(4-Fluorophenyl)-1H-pyrazolo[3,4-c]pyridine-4-carboxylic acid (5-bromopyridin-3-ylmethyl)-amide]",13 nM
2,"CN(C)S(=O)(=O)c1ccc(CNC(=O)c2cncc3c2cnn3-c2ccc(F)cc2)cn1 [1-(4-Fluorophenyl)-1H-pyrazolo[3,4-c]pyridine-4-carboxylic acid (6-dimethylsulfamoyl-pyridin-3-ylmethyl)-amide]",1 nM
3,"CCS(=O)(=O)c1ccc(CNC(=O)c2cncc3c2cnn3-c2ccc(F)cc2)cn1 [1-(4-Fluorophenyl)-1H-pyrazolo[3,4-c]pyridine-4-carboxylic acid (6-ethanesulfonyl-pyridin-3-ylmethyl)-amide]",31 nM
4,"CS(=O)(=O)c1cccc(CNC(=O)c2cncc3c2cnn3-c2ccc(F)cc2)n1 [1-(4-Fluorophenyl)-1H-pyrazolo[3,4-c]pyridine-4-carboxylic acid (6-methanesulfonyl-pyridin-2-ylmethyl)-amide]",39 nM
5,"CS(=O)(=O)Nc1ccc(CNC(=O)c2cncc3c2cnn3-c2ccc(F)cc2)cn1 [1-(4-Fluorophenyl)-1H-pyrazolo[3,4-c]pyridine-4-carboxylic acid (6-methanesulfonylamino-pyridin-3-ylmethyl)-amide]",25 nM
6,"CCC[C@H](NC(=O)c1cncc2c1cnn2-c1ccc(F)cc1)c1cccnc1 [1-(4-Fluorophenyl)-1H-pyrazolo[3,4-c]pyridine-4-carboxylic acid ((S)-1-pyridin-3-yl-butyl)-amide]",5 nM
7,"CCCC(NC(=O)c1cncc2c1cnn2-c1ccc(F)cc1)c1ccnc(Br)c1 (stereo not shown) [1-(4-Fluorophenyl)-1H-pyrazolo[3,4-c]pyridine-4-carboxylic acid [1-(2-bromopyridin-4-yl)-butyl]-amide]",0.4 nM
8,"CC(NC(=O)c1cncc2c1cnn2-c1ccc(F)cc1)c1ccnc(Br)c1 (stereo not shown) [1-(4-Fluorophenyl)-1H-pyrazolo[3,4-c]pyridine-4-carboxylic acid [1-(2-bromopyridin-4-yl)-ethyl]-amide]",1 nM
9,"CCC(NC(=O)c1cncc2c1cnn2-c1ccc(F)cc1)c1ccnc(Br)c1 (stereo not shown) [1-(4-Fluorophenyl)-1H-pyrazolo[3,4-c]pyridine-4-carboxylic acid [1-(2-bromopyridin-4-yl)-propyl]-amide]",0.4 nM
10,"CCCC(NC(=O)c1cncc2c1cnn2-c1ccc(F)cc1)c1ccnc(S(=O)(=O)CC)c1 (stereo not shown) [1-(4-Fluorophenyl)-1H-pyrazolo[3,4-c]pyridine-4-carboxylic acid [1-(2-ethanesulfonyl-pyridin-4-yl)-butyl]-amide]",0.8 nM
11,"CCCC(NC(=O)c1cncc2c1cnn2-c1ccc(F)cc1)c1cncc(Br)c1 (stereo not shown) [1-(4-Fluorophenyl)-1H-pyrazolo[3,4-c]pyridine-4-carboxylic acid [1-(5-bromopyridin-3-yl)-butyl]-amide]",0.4 nM
12,"CCCC(NC(=O)c1cncc2c1cnn2-c1ccc(F)cc1)c1cncc(S(C)(=O)=O)c1 (stereo not shown) [1-(4-Fluorophenyl)-1H-pyrazolo[3,4-c]pyridine-4-carboxylic acid [1-(5-methanesulfonyl-pyridin-3-yl)-butyl]-amide]",0.6 nM
13,"CCCC(NC(=O)c1cncc2c1cnn2-c1ccc(F)cc1)c1cncc(S(=O)(=O)NC)c1 (stereo not shown) [1-(4-Fluorophenyl)-1H-pyrazolo[3,4-c]pyridine-4-carboxylic acid [1-(5-methylsulfamoyl-pyridin-3-yl)-butyl]-amide]",0.5 nM
14,"CCCC(NC(=O)c1cncc2c1cnn2-c1ccc(F)cc1)c1cncc(S(N)(=O)=O)c1 (stereo not shown) [1-(4-Fluorophenyl)-1H-pyrazolo[3,4-c]pyridine-4-carboxylic acid [1-(5-sulfamoyl-pyridin-3-yl)-butyl]-amide]",0.4 nM
15,"CC(NC(=O)c1cncc2c1cnn2-c1ccc(F)cc1)c1ccc(Br)nc1 (stereo not shown) [1-(4-Fluorophenyl)-1H-pyrazolo[3,4-c]pyridine-4-carboxylic acid [1-(6-bromopyridin-3-yl)-ethyl]-amide]",30 nM
16,"CCCC(NC(=O)c1cncc2c1cnn2-c1ccc(F)cc1)c1ccc(S(C)(=O)=O)nc1 (stereo not shown) [1-(4-Fluorophenyl)-1H-pyrazolo[3,4-c]pyridine-4-carboxylic acid [1-(6-methanesulfonyl-pyridin-3-yl)-butyl]-amide]",0.8 nM

row,Compound,IC50
1,"CC(NC(=O)c1cncc2c1cnn2-c1ccc(F)cc1)c1ccc(S(C)(=O)=O)nc1 (stereo not shown) [1-(4-Fluorophenyl)-1H-pyrazolo[3,4-c]pyridine-4-carboxylic acid [1-(6-methanesulfonyl-pyridin-3-yl)-ethyl]-amide]",9 nM
2,"CCC(NC(=O)c1cncc2c1cnn2-c1ccc(F)cc1)c1ccc(S(C)(=O)=O)nc1 (stereo not shown) [1-(4-Fluorophenyl)-1H-pyrazolo[3,4-c]pyridine-4-carboxylic acid [1-(6-methanesulfonyl-pyridin-3-yl)-propyl]-amide]",3 nM
3,"O=C(NCc1ccc(N2CCCCS2(=O)=O)nc1)c1cncc2c1cnn2-c1ccc(F)cc1 [1-(4-Fluorophenyl)-1H-pyrazolo[3,4-c]pyridine-4-carboxylic acid [6-(1,1-dioxo-1λ6-perhydro-1,2-thiazin-2-yl)-pyridin-3-ylmethyl]-amide]",9 nM
4,"COCCNS(=O)(=O)c1ccc(CNC(=O)c2cncc3c2cnn3-c2ccc(F)cc2)cn1 [1-(4-Fluorophenyl)-1H-pyrazolo[3,4-c]pyridine-4-carboxylic acid [6-(2-methoxy-ethylsulfamoyl)-pyridin-3-ylmethyl]-amide]",9 nM
5,"CN(C)S(=O)(=O)Nc1ccc(CNC(=O)c2cncc3c2cnn3-c2ccc(F)cc2)cn1 [1-(4-Fluorophenyl)-1H-pyrazolo[3,4-c]pyridine-4-carboxylic acid [6-(dimethylamino-sulfonylamino)-pyridin-3-ylmethyl]-amide]",24 nM
6,"CN(C)S(=O)(=O)N(C)c1ccc(CNC(=O)c2cncc3c2cnn3-c2ccc(F)cc2)cn1 [1-(4-Fluorophenyl)-1H-pyrazolo[3,4-c]pyridine-4-carboxylic acid [6-(dimethylamino-sulfonylmethylamino)-pyridin-3-ylmethyl]-amide]",1 nM
7,"CN(c1ccc(CNC(=O)c2cncc3c2cnn3-c2ccc(F)cc2)cn1)S(C)(=O)=O [1-(4-Fluorophenyl)-1H-pyrazolo[3,4-c]pyridine-4-carboxylic acid [6-(methanesulfonyl-methyl-amino)-pyridin-3-ylmethyl]-amide]",5 nM
8,"O=C(NCc1ccc(S(=O)(=O)N2CCOCC2)nc1)c1cncc2c1cnn2-c1ccc(F)cc1 [1-(4-Fluorophenyl)-1H-pyrazolo[3,4-c]pyridine-4-carboxylic acid [6-(morpholine-4-sulfonyl)-pyridin-3-ylmethyl]-amide]",18 nM
9,"O=C(NCc1ccc(S(=O)(=O)NC2CCOCC2)nc1)c1cncc2c1cnn2-c1ccc(F)cc1 [1-(4-Fluorophenyl)-1H-pyrazolo[3,4-c]pyridine-4-carboxylic acid [6-(tetrahydropyran-4-ylsulfamoyl)-pyridin-3-ylmethyl]-amide]",17 nM
10,"C=CC[C@@H](NC(=O)c1cncc2c1cnn2-c1ccc(F)cc1)c1ccnc(Br)c1 [1-(4-Fluorophenyl)-1H-pyrazolo[3,4-c]pyridine-4-carboxylic acid [(R)-1-(2-bromopyridin-4-yl)-but-3-enyl]-amide]",17 nM
11,"C=CC[C@@H](NC(=O)c1cncc2c1cnn2-c1ccc(F)cc1)c1ccnc(S(C)(=O)=O)c1 [1-(4-Fluorophenyl)-1H-pyrazolo[3,4-c]pyridine-4-carboxylic acid [(R)-1-(2-methanesulfonyl-pyridin-4-yl)-but-3-enyl]-amide]",1 nM
12,"C=CC[C@H](NC(=O)c1cncc2c1cnn2-c1ccc(F)cc1)c1ccnc(Br)c1 [1-(4-Fluorophenyl)-1H-pyrazolo[3,4-c]pyridine-4-carboxylic acid [(S)-1-(2-bromopyridin-4-yl)-but-3-enyl]-amide]",0.3 nM
13,"CCC[C@H](NC(=O)c1cncc2c1cnn2-c1ccc(F)cc1)c1cncc(Br)c1 [1-(4-Fluorophenyl)-1H-pyrazolo[3,4-c]pyridine-4-carboxylic acid [(S)-1-(5-bromopyridin-3-yl)-butyl]-amide]",0.2 nM
14,"C[C@H](NC(=O)c1cncc2c1cnn2-c1ccc(F)cc1)c1cncc(Br)c1 [1-(4-Fluorophenyl)-1H-pyrazolo[3,4-c]pyridine-4-carboxylic acid [(S)-1-(5-bromopyridin-3-yl)-ethyl]-amide]",1 nM
15,"CC[C@H](NC(=O)c1cncc2c1cnn2-c1ccc(F)cc1)c1cncc(Br)c1 [1-(4-Fluorophenyl)-1H-pyrazolo[3,4-c]pyridine-4-carboxylic acid [(S)-1-(5-bromopyridin-3-yl)-propyl]-amide]",0.2 nM
